Structures are written as SMILES. Where “and” joins values, the source holds several entries; their conditions need not be identical. Equal values may be shown once.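 Growth conditions: 96-well plates. Treatment: test compound, 48 hours, 5 concentrations. Analysis: linear interpolation between bracketing concentrations; unreached endpoints set to highest concentration. At the GI50, growth is halved.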 Calls of active or inactive are those of the source. No stated cut-off is given here; in the data, active = GI50 up to about 1.1 µM and inactive = higher. Some results are limits rather than exact numbers.

The source of these data is ChEMBL document CHEMBL1201862, “PubChem BioAssay data set” (2004).

Some test systems named below: 786-0; A549; ACHN; CAKI-1; COLO 205; DU-145; EKVX; HCC 2998; HCT-116; HCT-15; HOP-62; HOP-92; HT-29; Hs-578T; IGROV-1; K562; KM12; LOX IMVI; M14; MCF7; MDA-MB-435; MDA-N; Malme-3M; NCI-H226; NCI-H23; NCI-H460; NCI-H522; NCI/ADR-RES; OVCAR-3; OVCAR-4; OVCAR-5; OVCAR-8; PC-3; RPMI-8226; RXF 393; SF-268; SF-295; SF-539; SK-MEL-28; SK-MEL-2; SK-MEL-5; SK-OV-3; SN12C; SNB-19; SNB-75; SR; SW-620; T47D; TK-10; U-251; UACC-257; UACC-62; HL-60; MDA-MB-231.

What all share (test): NCI tumour cell line growth inhibition, 48 h

As for `CC(C)(O)/C=C\P(C)(=O)c1ccccc1` (stereo not given), the GI50 in the experiment on 786-0, in the experiment with A549, in the experiment on ACHN, in the experiment with CAKI-1, with COLO 205 and in the experiment with DU-145 was > 100 µM (inactive) in each case. For the same compound, the GI50 with EKVX was > 100 µM (inactive); with HCC 2998, > 100 µM (inactive); with HCT-116, > 100 µM (inactive); in the experiment with HCT-15 it was more than 100 µM; with HOP-62, > 100 µM (inactive); in the experiment with HOP-92 it was > 100 µM (inactive). Also, the GI50 with HT-29, with Hs-578T, in the experiment with IGROV-1, with K562, in the experiment with KM12 and in the experiment on LOX IMVI was > 100 µM (inactive) in each case. For the same compound, the GI50 in the experiment on M14, in the experiment on MCF7, in the experiment on MDA-MB-435, in the experiment with MDA-N, in the experiment on Malme-3M and in the experiment with NCI-H226 was > 100 µM (inactive) each time. Moreover, the GI50 in the experiment with NCI-H23, with NCI-H460, in the experiment with NCI-H522, in the experiment on NCI/ADR-RES, in the experiment on OVCAR-3 and in the experiment with OVCAR-4 was > 100 µM (inactive) in each case. The GI50 in the experiment on OVCAR-5 was > 100 µM (inactive); in the experiment with OVCAR-8, > 100 µM (inactive); with PC-3, > 100 µM (inactive); in the experiment with RPMI-8226 it was 39.4 µM (inactive); in the experiment with RXF 393 it was > 100 µM (inactive); in the experiment on SF-268, > 100 µM (inactive). The GI50 with SF-295, with SF-539, in the experiment on SK-MEL-28, in the experiment on SK-MEL-2, with SK-MEL-5 and in the experiment with SK-OV-3 was > 100 µM (inactive) in each case. In addition, the GI50 with SN12C, with SNB-19, in the experiment with SNB-75, in the experiment with SR, in the experiment with SW-620 and with T47D was > 100 µM (inactive) in each case. For the same compound, the GI50 in the experiment with TK-10, in the experiment with U-251, in the experiment on UACC-257 and with UACC-62 was > 100 µM (inactive) in each case.

Turning to `CC(CN(C)C)Nc1c2ccccc2nc2cccc([N+](=O)[O-])c12` (stereo not given), the GI50 with HL-60 was 0.203 µM (active); in the experiment with MDA-N, 0.23 µM (active); in the experiment with NCI-H522 it was 0.0268 µM (active).

With `O=C1CC(CC(OCc2ccccc2)C(OCc2ccccc2)C(COCc2ccccc2)OCc2ccccc2)CC(=O)N1` (stereo not given), the GI50 was > 100 µM (inactive) in the experiment on HOP-92; 4.53 µM (inactive) in the experiment with HT-29; 8.67 µM (inactive) in the experiment with MDA-MB-231; > 10 µM (inactive) in the experiment on T47D; > 100 µM (inactive) and 81.8 µM (inactive) in the experiment with TK-10.
